Assay [1] concerns the target human NPFF1 receptor (Homo sapiens, UniProt Q9GZQ6). The experiment in a line: NPFF1 calcium mobilization assay. Type of assay: cell-based. To be noted: for NPFF1 antagonist activity (in words) / NPFF1 Ke: calcium mobilization assay; for Ca^2+ NPFF1 Ke: Table 1.
In assay [2] the target is human NPFF2 receptor (Homo sapiens, UniProt Q9Y5X5). The experiment in a line: NPFF2 calcium mobilization assay. Type of assay: cell-based. To be noted: for NPFF2 antagonist activity (in words): calcium mobilization assay; for Ca^2+ NPFF2 Ke: Table 1. (Calcium assays in cells follow changes in intracellular calcium, usually with a dye or a luminescent sensor.)
Sequence of human NPFF2 receptor (Q9Y5X5 whole entry): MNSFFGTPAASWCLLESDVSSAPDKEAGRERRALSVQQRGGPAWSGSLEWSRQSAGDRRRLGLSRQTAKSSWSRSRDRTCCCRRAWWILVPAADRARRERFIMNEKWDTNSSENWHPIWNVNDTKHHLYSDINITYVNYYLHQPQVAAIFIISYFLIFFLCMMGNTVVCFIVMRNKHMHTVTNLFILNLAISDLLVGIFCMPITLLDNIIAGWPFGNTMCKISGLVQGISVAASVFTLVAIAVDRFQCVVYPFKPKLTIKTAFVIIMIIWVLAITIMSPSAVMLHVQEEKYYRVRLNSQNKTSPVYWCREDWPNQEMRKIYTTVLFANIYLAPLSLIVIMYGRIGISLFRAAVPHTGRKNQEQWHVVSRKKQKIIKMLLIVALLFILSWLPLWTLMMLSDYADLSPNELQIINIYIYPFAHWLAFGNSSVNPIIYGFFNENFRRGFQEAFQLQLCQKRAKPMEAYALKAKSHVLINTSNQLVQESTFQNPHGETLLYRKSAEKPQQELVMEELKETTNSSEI
Assay [3] addresses human NPFFR1 (Homo sapiens, UniProt Q9GZQ6). The experiment in a line: Lance cAMP assay, NPFFR1-CHO cells. The assay is classed as cell-based. For orientation: Cyclic AMP is a second messenger, typically raised through Gs and lowered through Gi signalling.
The target in assay [4] is human NPFFR2 (Homo sapiens, UniProt Q9Y5X5). The experiment in a line: Lance cAMP assay, NPFFR2-CHO cells. The assay is classed as cell-based.
Sequence of human NPFFR2 (Q9Y5X5 whole entry): as above
For assay [5], the system named is NPFF receptors. The experiment in a line: Curve-shift assays, type of antagonism. Type of assay: cell-based, human. To be noted: standard incubation; typical competitive profile with longer incubations.
The mark [6] stands for this setting: apparent Ke from right shift of NPFF curve, 15 min pretreatment.
[7] abbreviates: footnote c: pre-incubation 45 min or 1 hr.

Marks after values point to notes of the source that are not given here.

Sequence of human NPFFR1 (Q9GZQ6 whole entry): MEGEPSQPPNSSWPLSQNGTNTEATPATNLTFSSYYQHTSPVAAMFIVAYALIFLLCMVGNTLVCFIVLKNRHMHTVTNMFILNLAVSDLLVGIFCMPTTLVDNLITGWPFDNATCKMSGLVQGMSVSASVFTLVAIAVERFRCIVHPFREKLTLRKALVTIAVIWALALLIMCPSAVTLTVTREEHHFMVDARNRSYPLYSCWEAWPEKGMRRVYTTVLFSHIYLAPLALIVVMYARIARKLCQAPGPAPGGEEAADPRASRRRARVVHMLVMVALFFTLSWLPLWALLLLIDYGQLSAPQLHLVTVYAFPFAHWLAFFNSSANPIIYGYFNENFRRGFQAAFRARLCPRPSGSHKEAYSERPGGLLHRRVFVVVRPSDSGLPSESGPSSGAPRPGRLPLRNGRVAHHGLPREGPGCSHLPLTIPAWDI
Sequence of human NPFF1 receptor (Q9GZQ6 whole entry): as above

For the molecule `CNC(=O)[C@@H]1C[C@H](NCc2ccc(OC)cc2)CN1Cc1ccccc1Cl` [Compound 10, (2S,4S)-1-[(2-Chlorophenyl)methyl]-4-{[(4-methoxyphenyl)methyl]amino}-N-methylpyrrolidine-2-carboxamide], the “NPFF1 antagonist activity (in words)” value in assay [1] is “inactive”. Further, in assay [2], the “NPFF2 antagonist activity (in words)” value is “inactive”.
Take `CCNC(=O)[C@@H]1C[C@H](NCc2ccc(OC)cc2)CN1Cc1ccccc1Cl` [Compound 11, (2S,4S)-1-[(2-Chlorophenyl)methyl]-N-ethyl-4-{[(4-methoxyphenyl)methyl]amino} pyrrolidine-2-carboxamide]: the “Ca^2+ NPFF1 Ke” value in assay [1] (setting [6]) is >10^b μM. Further, in assay [1], the “NPFF1 Ke” value is listed as greater than 10 µM and the “NPFF1 antagonist activity (in words)” value was “inactive”. The “Ca^2+ NPFF2 Ke” value in assay [2] (setting [6]) was >10^b μM. In addition, the “NPFF2 antagonist activity (in words)” value in assay [2] was “inactive”.
In the case of `CCCCNC(=O)[C@@H]1C[C@H](NCc2ccc(OC)cc2)CN1Cc1ccccc1Cl` [Compound 13, (2S,4S)-N-Butyl-1-[(2-chlorophenyl)methyl]-4-{[(4-methoxyphenyl)methyl]amino} pyrrolidine-2-carboxamide], in assay [1] (setting [6]), the “Ca^2+ NPFF1 Ke” value is 1.24 ± 0.14 µM.
Turning to `CCC(C)NC(=O)[C@@H]1C[C@H](NCc2ccc(OC)cc2)CN1Cc1ccccc1Cl` (stereo partly drawn) [Compound 14, (2S,4S)-N-(Butan-2-yl)-1-[(2-chlorophenyl)methyl]-4-{[(4-methoxyphenyl)methyl]amino} pyrrolidine-2-carboxamide], in assay [1] (setting [6]), the “Ca^2+ NPFF1 Ke” value was 1.50 ± 0.06 µM. Besides, in assay [2] (setting [6]), the “Ca^2+ NPFF2 Ke” value is given as 3.68 ± 0.35^b μM.
As to `COc1ccc(CN[C@H]2C[C@@H](C(=O)NC(C)(C)C)N(Cc3ccccc3Cl)C2)cc1` [Compound 15, (2S,4S)-N-tert-Butyl-1-[(2-chlorophenyl)methyl]-4-{[(4-methoxyphenyl)methyl]amino} pyrrolidine-2-carboxamide], in assay [1] (setting [6]), the “Ca^2+ NPFF1 Ke” value amounted to 1.88 ± 0.21 µM. Moreover, in assay [2] (setting [7]), the “Ca^2+ NPFF2 Ke” value is 1.26 ± 0.8^c μM.
With `CCCCCCNC(=O)[C@@H]1C[C@H](NCc2ccc(OC)cc2)CN1Cc1ccccc1Cl` [Compound 18, (2S,4S)-1-[(2-Chlorophenyl)methyl]-4-{[(4-methoxyphenyl)methyl]amino}-N-hexylpyrrolidine-2-carboxamide], the Kb was 1.98 ± 0.28 µM in assay [3] and 2.48 ± 0.27 µM in assay [4].
Regarding `CCCCCCCCCCNC(=O)[C@@H]1C[C@H](NCc2ccc(OC)cc2)CN1Cc1ccccc1Cl` [Compound 19, (2S,4S)-1-[(2-Chlorophenyl)methyl]-N-decyl-4-{[(4-methoxyphenyl)methyl]amino} pyrrolidine-2-carboxamide], in assay [1] (setting [7]), the “Ca^2+ NPFF1 Ke” value is >10^b,c μM. Moreover, the “NPFF1 antagonist activity (in words)” value in assay [1] is given as “completely abolished”.
`CCN(CC)C(=O)[C@@H]1C[C@H](NCc2ccc(OC)cc2)CN1Cc1ccccc1Cl` [Compound 22, (2S,4S)-1-[(2-Chlorophenyl)methyl]-N,N-diethyl-4-{[(4-methoxyphenyl)methyl]amino} pyrrolidine-2-carboxamide]: in assay [1] (setting [6]), the “Ca^2+ NPFF1 Ke” value is listed as >10^b μM. In addition, in assay [1], the “NPFF1 antagonist activity (in words)” value was “inactive”. Moreover, the “NPFF2 antagonist activity (in words)” value in assay [2] is “inactive”.
For `COc1ccc(CN[C@H]2C[C@@H](C(=O)NCc3ccccc3)N(Cc3ccccc3Cl)C2)cc1` [Compound 23, (2S,4S)-N-Benzyl-1-[(2-chlorophenyl)methyl]-4-{[(4-methoxyphenyl)methyl]amino} pyrrolidine-2-carboxamide], the “Ca^2+ NPFF1 Ke” value in assay [1] (setting [7]) is reported as 0.78 ± 0.08^c μM. Further, the “NPFF1 Ke” value in assay [1] is listed as 0.78 µM. Moreover, the “Ca^2+ NPFF2 Ke” value in assay [2] (setting [7]) is 2.01 ± 0.44^c μM. Besides, the “cAMP NPFF1 Ke” value in assay [3] (Table 1) is 1.72 ± 0.32 µM. In assay [4] (Table 1), the “cAMP NPFF2 Ke” value stood at 3.90 ± 1.1 µM. The “type of antagonism in curve-shift assays” value in assay [5] is listed as “insurmountable antagonism”.
For `COc1ccc(CN[C@H]2C[C@@H](C(=O)NCCc3ccccc3)N(Cc3ccccc3Cl)C2)cc1` [Compound 24, (2S,4S)-1-[(2-Chlorophenyl)methyl]-4-{[(4-methoxyphenyl)methyl]amino}-N-(2-phenylethyl)pyrrolidine-2-carboxamide], the Kb in assay [2] is 2.34 ± 0.31 µM.
Broadly, the IC50 is the concentration at which inhibition is half-maximal. Regarding `COc1ccc(CN[C@H]2C[C@@H](C(=O)NCCCc3ccccc3)N(Cc3ccccc3Cl)C2)cc1` [Compound 25, (2S,4S)-1-[(2-Chlorophenyl)methyl]-4-{[(4-methoxyphenyl)methyl]amino}-N-(3-phenylpropyl)pyrrolidine-2-carboxamide], in assay [1], the IC50 is greater than 10 µM and the “NPFF1 antagonist activity (in words)” value is reported as “completely abolished the activity”.
As for `COc1ccc(CN[C@H]2C[C@@H](C(=O)NCCc3ccc(OC)c(OC)c3)N(Cc3ccccc3Cl)C2)cc1` [Compound 27, (2S,4S)-1-[(2-Chlorophenyl)methyl]-N-[2-(3,4-dimethoxyphenyl)ethyl]-4-{[(4-methoxyphenyl)methyl]amino}pyrrolidine-2-carboxamide], the Kb is 1.52 ± 0.11 µM in assay [3] and greater than 10 µM in assay [4].
As for `COc1ccc(CN[C@H]2C[C@@H](C(=O)NCCc3ccc(N(C)C)cc3)N(Cc3ccccc3Cl)C2)cc1` [Compound 28, (2S,4S)-1-[(2-Chlorophenyl)methyl]-N-{2-[4-(dimethylamino)phenyl]ethyl}-4-{[(4-methoxyphenyl)methyl]amino}pyrrolidine-2-carboxamide], the Kb in assay [2] stood at 2.08 ± 0.38 µM.
Regarding `COc1ccc(CN[C@H]2C[C@@H](C(=O)NCCc3ccc(C(C)(C)C)cc3)N(Cc3ccccc3Cl)C2)cc1` [Compound 31, (2S,4S)-N-[2-(4-tert-Butylphenyl)ethyl]-1-[(2-chlorophenyl)methyl]-4-{[(4-methoxyphenyl)methyl]amino}pyrrolidine-2-carboxamide], in assay [2], the Kb was 2.42 ± 0.26 µM.
Consider `COc1ccc(CN[C@H]2C[C@@H](C(=O)NCCc3ccc(Cl)cc3)N(Cc3ccccc3Cl)C2)cc1` [Compound 32, (2S,4S)-N-[2-(4-Chlorophenyl)ethyl]-1-[(2-chlorophenyl)methyl]-4-{[(4-methoxyphenyl)methyl]amino}pyrrolidine-2-carboxamide], for which the Kb came to 0.99 ± 0.22 µM in assay [1], 1.83 ± 0.09 µM in assay [2], 1.49 ± 0.1 µM in assay [3] and 2.53 ± 0.36 µM in assay [4]. Also, the “type of antagonism in curve-shift assays” value in assay [5] is “insurmountable antagonism”.
Turning to `COc1ccc(CN[C@H]2C[C@@H](C(=O)NCCc3ccc(F)c(F)c3)N(Cc3ccccc3Cl)C2)cc1` [Compound 34, (2S,4S)-1-[(2-Chlorophenyl)methyl]-N-[2-(3,4-difluorophenyl)ethyl]-4-{[(4-methoxyphenyl)methyl]amino}pyrrolidine-2-carboxamide], in assay [2], the Kb turned out to be 3.49 ± 1.4 µM.
Turning to `COc1ccc(CN[C@H]2C[C@@H](C(=O)NCCc3ccc(F)cc3)N(Cc3ccccc3Cl)C2)cc1` [Compound 35, (2S,4S)-1-[(2-Chlorophenyl)methyl]-N-[2-(4-fluorophenyl)ethyl]-4-{[(4-methoxyphenyl)methyl]amino}pyrrolidine-2-carboxamide], the Kb in assay [3] was 1.41 ± 0.18 µM; in assay [4] it was greater than 10 µM.
Consider `CCN(CC)C(=O)[C@@H]1C[C@H](NCc2ccc(OC)cc2)CN1Cc1ccccc1Cl` [Compound 40, (2S,4S)-1-[(2-Chlorophenyl)methyl]-N,N-diethyl-4-{[(4-methoxyphenyl)methyl]amino} pyrrolidine-2-carboxamide], for which the “Ca^2+ NPFF1 Ke” value in assay [1] (setting [6]) came out at 2.90 ± 0.15 µM. Moreover, in assay [1], the “NPFF1 Ke” value is recorded as 2.90 µM. The “Ca^2+ NPFF2 Ke” value in assay [2] (setting [6]) is 4.93 ± 0.02^b μM.
On to `CCCN(CCC)C(=O)[C@@H]1C[C@H](NCc2ccc(OC)cc2)CN1Cc1ccccc1Cl` [Compound 41, (2S,4S)-1-[(2-Chlorophenyl)methyl]-4-{[(4-methoxyphenyl)methyl]amino}-N,N-dipropylpyrrolidine-2-carboxamide], for which the Kb in assay [3] was 2.31 ± 0.42 µM; in assay [4], greater than 10 µM. The “type of antagonism in curve-shift assays” value in assay [5] is “insurmountable antagonism”.
Turning to `COc1ccc(CN[C@H]2C[C@@H](C(=O)N3CCN(c4ccccc4)CC3)N(Cc3ccccc3Cl)C2)cc1` [Compound 42, (3S,5S)-1-[(2-Chlorophenyl)methyl]-N-[(4-methoxyphenyl)methyl]-5-(4-phenylpiperazine-1-carbonyl)pyrrolidin-3-amine], the “type of antagonism in curve-shift assays” value in assay [5] was “insurmountable antagonism”.
On to `CCCCCNC(=O)[C@@H]1C[C@H](NCc2ccc(SC)cc2)CN1Cc1ccccc1Cl` [Compound 43, (2S,4S)-1-[(2-Chlorophenyl)methyl]-4-{[(4-(methylthio)phenyl)methyl]amino}-N-pentylpyrrolidine-2-carboxamide], for which the Kb in assay [3] was found to be 1.07 ± 0.2 µM; in assay [4], 2.74 ± 0.21 µM.
Take `CSc1ccc(CN[C@H]2C[C@@H](C(=O)NCCc3ccccc3)N(Cc3ccccc3Cl)C2)cc1` [Compound 44, (2S,4S)-1-[(2-Chlorophenyl)methyl]-4-{[(4-(methylthio)phenyl)methyl]amino}-N-(2-phenylethyl)pyrrolidine-2-carboxamide]: the Kb in assay [3] was 1.3 ± 0.14 µM; in assay [4], greater than 10 µM.
Regarding `CSc1ccc(CN[C@H]2C[C@@H](C(=O)NCCc3ccc(F)c(F)c3)N(Cc3ccccc3Cl)C2)cc1` [Compound 47, (2S,4S)-1-[(2-Chlorophenyl)methyl]-N-[2-(3,4-difluorophenyl)ethyl]-4-{[(4-(methylthio)phenyl)methyl]amino}pyrrolidine-2-carboxamide], the Kb was 1.07 ± 0.27 µM in assay [3] and greater than 10 µM in assay [4].

The values above are taken from publication PMC6777341 (ACS chemical neuroscience, 2017).
